The results in this text go back to paper PMC3839906, “Structural and Physiological Analyses of the Alkanesulphonate-Binding Protein (SsuA) of the Citrus Pathogen Xanthomonas citri” (PLoS ONE, 2013).

Assay [1] deals with T1, SsuA (alkanesulphonate-binding protein) (Xanthomonas citri, UniProt A0AAI7ZHA1).
T1 construct: mature periplasmic protein without the 42-residue signal peptide (972 bp amplicon), pET28a N-terminal His6 tag with thrombin site, tag cut with thrombin; expressed in E. coli BL21(DE3); one molecule per asymmetric unit
T1 sequence (A0AAI7ZHA1 entry or part of it): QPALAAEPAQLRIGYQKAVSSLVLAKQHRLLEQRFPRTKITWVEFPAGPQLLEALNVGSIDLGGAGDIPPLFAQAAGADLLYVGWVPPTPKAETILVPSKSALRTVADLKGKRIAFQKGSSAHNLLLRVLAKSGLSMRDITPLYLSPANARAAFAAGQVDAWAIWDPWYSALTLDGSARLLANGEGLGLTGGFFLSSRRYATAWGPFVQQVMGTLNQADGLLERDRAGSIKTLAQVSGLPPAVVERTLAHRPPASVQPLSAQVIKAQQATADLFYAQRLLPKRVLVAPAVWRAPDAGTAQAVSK
The experiment in a line: thermal shift assay, SYPRO orange. Conditions: 5 mM ligand, 6 µM SsuA, 20 mM Tris pH 7.4, 50 mM NaCl.

In assay [2] the target is T1, SsuA (alkanesulphonate-binding protein). The experiment in a line: X-ray crystal structure of the complex. Conditions: ligand-binding pocket.

With `O=S(=O)(O)CCNC1CCCCC1` [CHES, 2-(n-cyclohexylamino)-ethanesulphonic acid], the “Tm (unbound form 39.5 °C)” value in assay [1] turned out to be 43.5 °C. Turning to `O=S(=O)(O)CCN1CCN(CCO)CC1` [HEPES, 4-(2-hydroxyethyl)-1-piperazine ethane sulphonic acid], the “Tm (unbound form 39.5 °C)” value in assay [1] was 45.8 °C. The “X-ray crystal structure of the complex” value in assay [2] (0.1 M HEPES pH 7.5, 1.6 M ammonium sulphate, 0.1 M NaCl) was “PDB codes 3E4R (SsuA + HEPES), 3KSX (SsuA + MOPS) and 3KSJ (SsuA + MES)”. With `O=S(=O)(O)CCN1CCOCC1` [MES, 2-(n-morpholino)-ethanesulphonic acid], in assay [1], the “Tm (unbound form 39.5 °C)” value turned out to be 47.1 °C. Moreover, in assay [2] (PDB code as in the deposition statement b39 (b17 prints 3KSX for MES)), the “X-ray crystal structure of the complex” value was “PDB codes 3E4R (SsuA + HEPES), 3KSX (SsuA + MOPS) and 3KSJ (SsuA + MES)”. Turning to `O=S(=O)(O)CCCN1CCOCC1` [MOPS, 3-morpholinopropane-1-sulphonic acid], the “Tm (unbound form 39.5 °C)” value in assay [1] was determined as 51 °C. For the same compound, in assay [2] (PDB code as in the deposition statement b39 (b17 prints 3KSJ for MOPS)), the “X-ray crystal structure of the complex” value is “PDB codes 3E4R (SsuA + HEPES), 3KSX (SsuA + MOPS) and 3KSJ (SsuA + MES)”.
